Measurements: patent US20260061084A1, “FIBROBLAST ACTIVATION PROTEIN (FAP) INHIBITORS, FAP CONJUGATES, AND DIAGNOSTIC AND THERAPEUTIC USES THEREOF” (Nuclidium AG, priority 2022, published 2026)

Experiments:
[1] = tested on: HT-1080.hFAP (FAP-positive) cells; test: In vitro cellular uptake (cell surface-bound and internalized fractions); format: cell-based, human; details: 37° C., specific uptake (HT-1080.wt subtracted)
Experimental: The cellular uptake was studied in vitro using intact cells seeded in 6-well plates overnight. […] At each investigated time point, the medium containing the unbound (free) radiotracer was removed, followed by two washing steps with ice-cold phosphate-buffered saline. The cells were then treated 2×5 min with ice-cold glycine solution (0.05 M, pH 2.8) to detach the cell surface-bound radiotracer (acid released). Afterwards, the cells containing the internalized radiotracer were detached with 1 M NaOH at 37° C. and collected for measurement. The amount of specific cell surface-bound and internalized radiotracer is expressed as percentage of the total applied activity, after subtracting the non-specific values.
The cells were then preconditioned in 360 μL of assay medium (MEM medium without supplements) at 37° C. for 60 min. 40 μL of a 2 nM solution of ^61Cu-labeled radioligand was added and the cells were incubated at 37° C. The cellular uptake was interrupted at different time points (15 min, 1 hour and 4 hours), by washing twice with ice-cold PBS. Cell surface-bound radioligand was obtained by washing cells twice with ice-cold glycine buffer (pH 2.8), followed by a collection of the internalized fraction with 1 M NaOH. The activity in each fraction was measured in a […] (Cobra II).

[2] = tested on: HT-1080.hFAP tumor-bearing mice; test: Biodistribution studies in xenografted mice; format: in vivo; details: i.v.; for Biodistribution: HT-1080.wt: FAP-negative tumor; for Biodistribution: HT-1080.hFAP: FAP-positive tumor
Experimental: The tumors were allowed to grow to an average volume of 100-200 mm^3.
Biodistribution Studies: The xenografted mice were randomized (n=5 per group) and injected intravenously via the tail vein with the ^61Cu-labeled radioligands (100 μL, […], 0.8-1MBq). Mice were euthanized 1 h and 4 h p.i. by CO2 asphyxiation. Organs of interest and blood were collected, rinsed of excess blood, blotted dry, weighed, and counted in a […]. The samples were counted against a suitably diluted aliquot of the injected solution as the standard and the results are expressed as the percentage of the injected activity per gram of tissue (% I.A./g) ±SD.

[3] = tested on: Mice bearing FAP-positive and FAP-negative xenografts; test: PET/CT imaging: remaining PET activity in the mouse body; format: in vivo
Experimental: The mice were euthanized by CO2 at 4 hours p.i., and static PET scans were acquired for 30 min.
PET/CT images were acquired using β-CUBE PET scanner system (Molecubes, Gent, Belgium), with a spatial resolution of 0.85 mm and an axial field-of-view of 13 cm. Dynamic PET scans were acquired for 60 min. All PET scans were decay corrected and reconstructed into a 192×192×384 matrix by an ordered subsets maximization expectation (OSEM) algorithm using 30 iterations, a voxel size of 400×400×400 μm a 15 min per frame. CT data was used to apply attenuation correction on the PET data. The CT was imaged supine, head first, using the NanoSPECT/CTTM scanner (Bioscan Inc.). Topograms and helical CT scans of the whole mouse were first acquired using the following parameters: X-ray tube current: 177 μA, X-ray tube voltage 45 kVp, 90 seconds and 180 frames per rotation, pitch 1. CT images were reconstructed using CTReco (version r1.146), with a standard filtered back projection algorithm (exact cone beam) and post-filtered (RamLak, 100% frequency cut-off), resulting in a pixel size of 0.2 mm. Co-registered PET/CT images were visualized using maximum intensity projection (MIP) with VivoQuant software (version 4.0).

CN(CCCN1CCN(C(=O)CCC(C(=O)O)N2CCN(CC(=O)[O-])CCN(CC(=O)[O-])CC2)CC1)c1ccc2nccc(C(=O)NCC(=O)N3CC(F)(F)CC3C#N)c2c1.[61Cu+2] (stereo not drawn) [[^61Cu]Cu-NODAGA-FAPI-46, reference compound]
Cell surface fraction ([1]; 15 min): 0.9 ± 0.3 % of the applied activity
Internalized fraction ([1]; 30 min): 24.3 ± 2.3 % of the applied activity
Cell surface fraction ([1]; 60 min): 1.2 ± 0.4 % of the applied activity
Internalized fraction ([1]; 60 min): 36.1 ± 1.6 % of the applied activity
Cell surface fraction ([1]; 240 min): 1.7 ± 0.4 % of the applied activity
Internalized fraction ([1]; 240 min): 50.0 ± 6.0 % of the applied activity
Biodistribution: Intestine ([2]; 1 hour p.i.): 1.0 ± 0.4 % I.A./g
Biodistribution: Liver ([2]; 1 hour p.i.): 0.9 ± 0.0 % I.A./g
Biodistribution: Pancreas ([2]; 1 hour p.i.): 2.0 ± 0.2 % I.A./g
Biodistribution: Spleen ([2]; 1 hour p.i.): 0.7 ± 0.1 % I.A./g
Biodistribution: Stomach ([2]; 1 hour p.i.): 1.0 ± 0.1 % I.A./g
Biodistribution: Adrenal ([2]; 4 hours p.i.): 2.0 ± 0.2 % I.A./g
Biodistribution: Heart ([2]; 4 hours p.i.): 0.7 ± 0.1 % I.A./g
Biodistribution: Intestine ([2]; 4 hours p.i.): 0.6 ± 0.2 % I.A./g
Biodistribution: Kidneys ([2]; 4 hours p.i.): 1.0 ± 0.1 % I.A./g
Biodistribution: Liver ([2]; 4 hours p.i.): 0.8 ± 0.2 % I.A./g
Biodistribution: Lung ([2]; 4 hours p.i.): 1.0 ± 0.1 % I.A./g
Biodistribution: Spleen ([2]; 4 hours p.i.): 0.5 ± 0.1 % I.A./g
Biodistribution: Stomach ([2]; 4 hours p.i.): 0.6 ± 0.1 % I.A./g
Biodistribution: HT-1080.wt ([2]; 1 hour p.i.): 3.1 ± 0.0 % I.A./g
Biodistribution: HT-1080.wt ([2]; 4 hours p.i.): 2.5 ± 0.2 % I.A./g
Biodistribution: HT-1080.hFAP ([2]; 1 hour p.i.): 8.4 ± 1.4 % I.A./g
Biodistribution: HT-1080.hFAP ([2]; 4 hours p.i.): 7.7 ± 0.4 % I.A./g
Retention in the body (remaining PET activity 4 h p.i.), in words [3]: highest retention in the body
